Assay results as given in patent US4954348A, “Non-ionic polyol contrast media from ionic contrast media” (Cook Imaging Corporation, priority 1988, dated 1990).
Read-outs that look alike come from different tables or passages of the source.

Columns and labels:
[1] = Osmolality at 300 mg I/ml, 37° C.; type: physicochemical; settings: for Osmolality: 300 mg I/ml, 37° C.; for osmolality versus existing compounds: existing compounds serving as control
Method: (§1) All compounds were tested for stability, solubility, osmolality, viscosity and systemic toxicity, using conventional tests.
(§2) *All at 300 mg I/ml concentration and 37° C. Injection rates 1

[2] = Viscosity at 300 mg I/ml, 37° C.; type: physicochemical
Method: as §1, §2

[3] = system: Mice (female CD-1); experiment: i.v. LD50 in mice (systemic toxicity); type: in vivo; settings: 300 mg I/ml, 37° C., injection rate 1 ml/min
Method: as §1, §2
(§3) ml/min in mice and 5 ml/min in rats.
(§4) ^° Ref. Salvesen, S. in Acta Radiol. Suppl. 362, p. 73, 1980.

[4] = system: Rats (female Lewis); experiment: i.v. LD50 in rats (systemic toxicity); type: in vivo; settings: 300 mg I/ml, 37° C., injection rate 5 ml/min
Method: as §1, §2, §3, §4

[5] = stability, solubility, osmolality, viscosity and systemic toxicity, conventional tests (overall statement); settings: existing compounds serving as control
Method: as §1

[6] = 300 mg I/ml, 37° C.; ^+ Ref. Handbook of Experimental Pharmacology, Vol. 73; cited from earlier work
[7] = 300 mg I/ml, 37° C.; ^+ Ref. Handbook of Experimental Pharmacology, Vol. 73; cited from earlier work; remark: listed apart in the source
[8] = must be dispensed in lyophilized form and reconstituted prior to use; cited from earlier work

SMILES	Osmolality [1]	osmolality versus existing compounds [1]	Viscosity [2]	i.v. LD50 [3]	i.v. LD50 [4]	stability, solubility, viscosity and systemic toxicity (other categories) versus existing compounds [5]	Osmolality [6]	Viscosity [7]	hydrolytic stability [8]
CNC(=O)c1c(I)c(C(=O)N[C@H](CO)[C@@H](O)CO)c(I)c(N(CC(O)CO)C(C)=O)c1I (relative stereo) [XVI, 5-(N-2,3-Dihydroxypropylacetamido)-2,4,6-triido-N-methyl-N'-(1,3,4-trihydroxy-erythro-but-2-yl)-isophthalamide]	513 mOsm/kg	substantially reduced osmolality	5.2 cps	12-13 gI/kg	13.5-14 gI/kg	comparable or superior properties in the other categories	–	–	–
CC(=O)N(CC(O)CO)c1c(I)c(C(=O)NCC(O)CO)c(I)c(C(=O)NCC(O)CO)c1I (stereo not shown) [Iohexol]	–	–	–	17.9 gI/kg	13.5-15 gI/kg	–	690 mOsm/kg	6.1 cps	–
C[C@H](O)C(=O)Nc1c(I)c(C(=O)NC(CO)CO)c(I)c(C(=O)NC(CO)CO)c1I [Iopamidol]	–	–	–	17-18.5 gI/kg	12.2-13 gI/kg	–	619 mOsm/kg	4.5 cps	–
COCC(=O)Nc1c(I)c(C(=O)NCC(O)CO)c(I)c(C(=O)N(C)CC(O)CO)c1I (stereo not shown) [Iopromide]	–	–	–	11.5-13.0 gI/kg	10-11.5 gI/kg	–	607 mOsm/kg	4.8 cps	–
CC(=O)Nc1c(I)c(C(=O)N[C@H]2C(O)O[C@H](CO)[C@@H](O)[C@@H]2O)c(I)c(N(C)C(C)=O)c1I (stereo partly shown) [Metrizamide]	–	–	–	–	–	–	–	–	hydrolytic instability
CC(=O)N(CC(O)CO)c1c(I)c(C(=O)NCCO)c(I)c(C(=O)NCC(O)CO)c1I (stereo not shown) [VIII, 5-(N-2,3-Dihydroxypropylacetamido)-2,4,6-triiodo-N-(2,3-dihydroxypropyl)-N'-(2-hydroxyethyl)isophthalamide]	524 mOsm/kg	substantially reduced osmolality	4.9 cps	18.8 gI/kg	14-16.5 gI/kg	comparable or superior properties in the other categories	–	–	–
